Key:
[1] = cited from earlier work
[2] = test system: patients with intermediate-2 or high risk myelofibrosis; conditions: cited from earlier work
[3] = Open-label study of immediate-release ruxolitinib phosphate tablets in MF patients, pharmacokinetics; assay type: in vivo, human; conditions: dose from 10 mg to 100 mg
Procedure: This was an open-label study exploring the safety, tolerability, and efficacy of ruxolitinib, administered orally to patients with primary myelofibrosis (PMF) and post polycythemia vera/essential thrombocythemia myelofibrosis (Post-PV/ET MF). The study was comprised of 3 parts: Part 1-dose escalation and expansion, bid dosing, Part 2-alternative dosing schedules (A, B and C), and Part 3-three independent patient groups (Group I, II and III). Eight dose regimens were evaluated in 3 parts. The Part 1 evaluated two dose levels of 25 mg bid and 50 mg bid, Part 2 studied five dose regimens of 10 mg bid, 25 mg bid, 25 mg qd, 50 mg qd and 100 mg qd and Part 3 assessed six dose regimens of 10 mg bid, 15 mg bid, 25 mg bid, 50 mg qd, 100 mg qd and 200 mg qd. A total of 154 subjects were enrolled; 32 subjects enrolled in Part 1, 29 subjects in Part 2 and 93 subjects in Part 3. See Table 4b (qd=once per day; bid=twice per day).
In Part 1, the pharmacokinetic blood samples were collected at pre-dose and 0.5, 1, 1.5, 2, 4, 6 and 9 hours post-dose on Days 1 and 15 of Cycle 1 and at pre-dose on Day 1 of Cycles 2 and 3, using lavender top (K3EDTA) Vacutainer® tubes. […]
Plasma samples were shipped to Incyte Corporation and assayed by a validated, GLP, LC/MS/MS method with a linear range of 1 to 1000 nM and a limit of quantification of 1 nM. […]

[4] = COMFORT I, immediate release, N = 155, maximum severity
[5] = COMFORT I, immediate release, N = 155, treatment-related, maximum severity
[6] = COMFORT I, immediate release, N = 155, treatment-related
[7] = COMFORT I, immediate release, N = 155
[8] = COMFORT I, mean exposure approximately 242 days
[9] = COMFORT-I Study (active), Week 12, mean total daily dose 30.4 mg, mean ± SD

## N#CC[C@H](C1CCCC1)n1cc(-c2ncnc3[nH]ccc23)cn1 [Ruxolitinib, (3R)-3-cyclopentyl-3-[4-(7H-pyrrolo[2,3-d]pyrimidin-4-yl)pyrazol-1-yl]propanenitrile]
[1]; human, immediate-release, Shi et al.
  half-life: about 3 hours
[1]; oral
  Bioavailability: 70-80%
[2]; [4]
  Number of Subjects With Any Adverse Events, FT (fatal): 9
  Number of Subjects With Any Adverse Events, LT (life threatening): 9
  Number of Subjects With Any Adverse Events, Mi (mild): 20
  Number of Subjects With Any Adverse Events, Mo (moderate): 58
  Number of Subjects With Any Adverse Events, Se (severe): 55
[2]; [5]
  Number of Subjects with Anaemia, FT (fatal): 0
  Number of Subjects with Anaemia, LT (life threatening): 8
  Number of Subjects with Anaemia, Mi (mild): 4
  Number of Subjects with Anaemia, Mo (moderate): 20
  Number of Subjects with Anaemia, Se (severe): 16
  Number of Subjects with Blood and lymphatic system disorders, FT (fatal): 0
  Number of Subjects with Blood and lymphatic system disorders, LT (life threatening): 10
  Number of Subjects with Blood and lymphatic system disorders, Mi (mild): 20
  Number of Subjects with Blood and lymphatic system disorders, Mo (moderate): 28
  Number of Subjects with Blood and lymphatic system disorders, Se (severe): 27
  Number of Subjects with Thrombocytopenia, FT (fatal): 0
  Number of Subjects with Thrombocytopenia, LT (life threatening): 2
  Number of Subjects with Thrombocytopenia, Mi (mild): 21
  Number of Subjects with Thrombocytopenia, Mo (moderate): 19
  Number of Subjects with Thrombocytopenia, Se (severe): 11
[2]; [6]
  % of Subjects with Anaemia, Any severity: 31.0%
  % of Subjects with Blood and lymphatic system disorders, Any severity: 54.8%
  % of Subjects with Thrombocytopenia, Any severity: 34.2%
  Number of Subjects with Anaemia, Any severity: 48
  Number of Subjects with Blood and lymphatic system disorders, Any severity: 85
  Number of Subjects with Thrombocytopenia, Any severity: 53
[2]; [7]
  % of Subjects With Any Adverse Events, Any severity: 97.4%
  Number of Subjects With Any Adverse Events, Any severity: 151
[2]; [8]
  Percent of Patients with All ≥ Grade 3 Adverse Events: 47.1%
  Percent of Patients with Grade 3 or Higher Anemia: 15.5%
  Percent of Patients with Grade 3 or Higher Neutropenia: 1.3%
  Percent of Patients with Grade 3 or Higher Thrombocytopenia: 8.4%
[2]; [9]
  Mean change from baseline Hgb: -13.2 ± 15.5 g/L
  Mean change from baseline platelet count: −131 ± 143 ×10^9/L
[3]
  dose proportionality of mean Cmax and AUC: increased approximately linearly proportional to dose

Source: patent US11576865B2, “Sustained-release dosage forms of ruxolitinib” (Incyte Corporation, priority 2012, dated 2023)
